Data as given in US11591574B2, “Optical-quality surface that imparts spatial control of macrophage fusion” (ARIZONA BOARD OF REGENTS ON BEHALF OF ARIZONA STATE …, priority 2016, dated 2023).
Entries after “also recorded” stand apart in the source; their conditions may differ.

System: macrophages
Assay: IL-4-induced macrophage fusion (fusion index)
Format: cell-based, mouse
Method: To test the rates of cell fusion on the above described glass slides with a pattern surface, monocytes or macrophages are collected according to standard protocols and applied to hydrocarbon chain surface. After 30 minutes, the cultures are washed 3 times rapidly with phosphate-buffered saline to remove unbound cells, and complete cell culture medium (DMEM:F12, 10% FBS, 1% antibiotics) is applied to the culture for about 2 hours. After about 2 hours, about 10 ng/ml of interleukin-4 is applied to the culture to induce fusion and the culture is incubated until the respective time point.
Macrophages were isolated from the mouse peritoneum 72 hr after injection of a sterile 4% solution of Brewer's thioglycollate (Sigma Aldrich, St. Louis, Mo.). […] Immediately following euthanasia, 5 mL of an ice-cold solution of phosphate-buffered saline (PBS, pH 7.4) supplemented with 5 mM EDTA was injected aseptically into the peritoneum, the lavage containing cells was collected, and the cells were counted with a Neubauer hemocytometer. […]
Peritoneal lavage cells were applied to various surfaces at a concentration of 2,000 cells/mm2 and incubated in 5% CO2 at 37° C. for 30 min. […] The extent of MGCs formation was evaluated by determining the fusion index. […] Three to 5 bright field images collected at 20× objective magnification were analyzed per specimen.

`CCCCCCCC/C=C\CCCCCCCC(N)=O` [oleamide] was tested, and the “increase in fusion versus clean glass” value (adsorption onto clean glass) was about 4 fold and the “level of macrophage fusion” value (hydrocarbon deposited on optical-quality glass, IL-4 induced) was “high-levels; also recorded: high levels”.
